The experiment has as its system LS513 KRAS G12V (colon). As to the kind of experiment: MTT assay. The note with it: Homo sapiens, LS-513, 72 h, Table 4; 3 days incubation; read-out: MTT assay IC50 KRAS mutant (Colon) LS513 KRAS G12V. In kind it is cell-based. Put shortly:
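Cells were seeded at line-dependent density and stabilised overnight at 37 °C, then exposed to compounds for 3 days at 37 °C. MTT was then added for 2 h and the formazan dissolved in DMSO.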
(In general: Tetrazolium assays rely on reduction of a dye to a coloured formazan, in cell work by metabolically active cells.)
`O=C(Nc1cccc(C(F)(F)F)c1)Nc1cc(Nc2ncccc2-c2ncnc3[nH]cnc23)ccc1F` [Example 118, 1-5-[(3-(9H-purin-6-yl)pyridin-2-yl)amino]-2-fluorophenyl-3-[3-(trifluoromethyl)phenyl]urea]: the IC50 (as a rule, the concentration at which inhibition is half-maximal) came to 153 nM.

Regarding `CC(C)(C#N)c1cccc(C(=O)Nc2cc(Nc3ncccc3-c3ncnc4[nH]cnc34)ccc2F)n1` [Example 119, N-5-[(3-(9H-purin-6-yl)pyridin-2-yl)amino]-2-fluorophenyl-6-(2-cyanopropan-2-yl)picolinamide], the IC50 is greater than 10000 nM. On to `O=C(Nc1cc(Nc2ncccc2-c2ncnc3[nH]cnc23)ccc1F)c1cc(C(F)(F)F)ccc1F` [Example 120, N-5-[(3-(9H-purin-6-yl)pyridin-2-yl)amino]-2-fluorophenyl-2-fluoro-5-(trifluoromethyl)benzamide], for which the IC50 came to 3380 nM. Then `O=C(Nc1cc(Nc2ncccc2-c2ncnc3[nH]cnc23)ccc1F)c1cccc(C(F)(F)F)c1F` [Example 121, N-5-[(3-(9H-purin-6-yl)pyridin-2-yl)amino]-2-fluorophenyl-2-fluoro-3-(trifluoromethyl)benzamide], with 304 nM; and `O=C(Nc1cccc(Nc2ncccc2-c2ncnc3[nH]cnc23)c1F)c1cccc(C(F)(F)F)c1` [Example 122, N-3-[(3-(9H-purin-6-yl)pyridin-2-yl)amino]-2-fluorophenyl-3-(trifluoromethyl)benzamide], with 6580 nM. As to `O=C(Nc1ccc(C(F)(F)F)cc1)Nc1cc(Nc2ncccc2-c2ncnc3[nH]cnc23)ccc1F` [Example 123, 1-5-[(3-(9H-purin-6-yl)pyridin-2-yl)amino]-2-fluorophenyl-3-[4-(trifluoromethyl)phenyl]urea], the half-inhibitory concentration (IC50) turned out to be 392 nM. For `O=C(Nc1cc(Nc2ncccc2-c2ncnc3[nH]cnc23)ccc1Cl)c1cc(C(F)(F)F)cc(C(F)(F)F)c1` [Example 124, N-5-[(3-(9H-purin-6-yl)pyridin-2-yl)amino]-2-chlorophenyl-3,5-bis(trifluoromethyl)benzamide], the IC50 worked out at 888 nM. Next, `CSc1cccc(C(=O)Nc2cc(Nc3ncccc3-c3ncnc4[nH]cnc34)ccc2F)c1` [Example 125, N-5-[(3-(9H-purin-6-yl)pyridin-2-yl)amino]-2-fluorophenyl-3-(methylthio)benzamide]: 767 nM; `CS(=O)(=O)c1cccc(C(=O)Nc2cc(Nc3ncccc3-c3ncnc4[nH]cnc34)ccc2F)c1` [Example 126, N-5-[(3-(9H-purin-6-yl)pyridin-2-yl)amino]-2-fluorophenyl-3-(methylsulfonyl)benzamide]: 1110 nM. On to `CC(C)(C#N)c1cc(F)cc(C(=O)Nc2cc(Nc3ncccc3-c3ncnc4[nH]cnc34)ccc2Cl)c1` [Example 127, N-5-[(3-(9H-purin-6-yl)pyridin-2-yl)amino]-2-chlorophenyl-3-(2-cyanopropan-2-yl)-5-fluorobenzamide], for which the IC50 stood at 591 nM. Take `O=C(Nc1cc(Nc2ncccc2-c2ncnc3[nH]cnc23)ccc1F)c1ccc(C(F)(F)F)cc1C(F)(F)F` [Example 128, N-5-[(3-(9H-purin-6-yl)pyridin-2-yl)amino]-2-fluorophenyl-2,4-bis(trifluoromethyl)benzamide]: the IC50 turned out to be 1200 nM. In the case of `O=C(Nc1cc(Nc2ncccc2-c2ncnc3[nH]cnc23)ccc1F)c1ccc(C(F)(F)F)c(C(F)(F)F)c1` [Example 129, N-5-[(3-(9H-purin-6-yl)pyridin-2-yl)amino]-2-fluorophenyl-3,4-bis(trifluoromethyl)benzamide], the concentration for half-maximal inhibition (IC50) was 652 nM. `O=C(Nc1cc(Nc2ncccc2-c2ncnc3[nH]cnc23)ccc1F)c1cc(C(F)(F)F)ccc1C(F)(F)F` [Example 130, N-5-[(3-(9H-purin-6-yl)pyridin-2-yl)amino]-2-fluorophenyl-2,5-bis(trifluoromethyl)benzamide]: the IC50 turned out to be 1050 nM.

As for `O=C(Nc1cc(Nc2ncccc2-c2ncnc3[nH]cnc23)ccc1F)c1cccc(OC(F)(F)F)c1` [Example 131, N-5-[(3-(9H-purin-6-yl)pyridin-2-yl)amino]-2-fluorophenyl-3-(trifluoromethoxy)benzamide], the IC50 was 102 nM.

The record behind these values is patent publication US10844062B2, “Pyridine derivative inhibiting RAF kinase and vascular endothelial growth factor receptor, method for preparing same, pharmaceutical composition containing same, and use thereof” (SAMJIN PHARMACEUTICAL CO., LTD., priority 2016, dated 2020).
